Experimental data from patent US11230526B1, “Cylcoalkenyl derivatives useful as agonists of the GPR120 and/or GPR40 receptors” (Janssen Pharmaceutica NV, priority 2018, dated 2022).

Tests used:
Type in all cases: cell-based
[1] = target: T1, short form of the GPR120 receptor (Homo sapiens, UniProt Q5NUL3); assay: Human GPR120 DiscoveRx PathHunter Beta-Arrestin assay, Procedure β-arrestin B
T1 construct: host or cells: PathHunter CHO-K1 GPR120S β-Arrestin Cell Line
Text: Human GPR120 DiscoveRx PathHunter® Beta-Arrestin Assay Assay Principle:
The binding of an agonist (medium/long chain fatty acids or small molecule agonists) to the G-protein-coupled receptor GPR120 activates phospholipase C, leading to release of intracellular Ca^+2 through the generation of inositol 1,4,5-trisphosphate (InsP3 or IP3). GPR120 activation can also trigger intracellular signaling via recruitment of Beta-Arrestin. In the present method, agonist-induced activation of the human GPR120 receptor is monitored through the use of PathHunter® CHO-K1 GPR120 Beta-Arrestin Cell Line engineered by DiscoveRx, as detailed below. The cell lines are designed to co-express both the ProLink/Enzyme Donor (PK)-tagged GPCR and the Enzyme […] (EA)-tagged Beta-Arrestin fusion proteins. Upon GPR120 receptor stimulation/activation, the EA-tagged Beta-Arrestin portion is translocated to the tagged receptor, where the two enzyme fragments are brought within close proximity. Under these conditions, these fragments can interact and form an active Beta-gal enzyme complex through Enzyme Fragment Complementation (EFC). This active Beta-gal complex can enzymatically hydrolyse the substrate to produce a detectable light signal; therefore, activation as a function of agonist concentration can be expressed as an EC50 value to determine relative compound activities. This in vitro assay therefore serves to assess compound agonist activity of the GPR120.
In Procedure β-arrestin B the cells used were PathHunter® CHO-K1 GPR120S β-Arrestin Cell Line, expressing the short form of the GPR120 receptor (Accession #[…]), with 5000 cells/well.
The selected CHO-K1 GPR120 β-Arrestin cells were cultured in Ham's F12 media supplemented with 10% fetal bovine serum (FBS), 1% Glutamine, 1×p/s, 800 μg/mL G418 and 300 μg/mL Hygromycin B (for selection). Cell stocks were maintained and grown in a sub-confluent state using standard cell culture procedures. The day before the experiment, the cells were harvested with non-enzymatic cell dissociation buffer and re-suspended in complete growth media at the desired concentration. A Corning 384-plate was then seeded with the proper number of cells in a volume of 25 μL, per well. The seeded plates were incubated overnight at 37° C.
On the day of the experiment, the Assay Buffer containing (a) HBSS with Ca^++ and Mg^++, (b) 20 mM HEPES, and (c) 0.1% BSA stabilizer (pH 7.4) was prepared. The growth medium was gently removed from the cell plates and 20 μL of Assay Buffer added to each well. The plate was then incubated at 37° C. for 60 min. Test compounds were serially diluted in Assay Buffer to desired concentrations (more particularly to one or more of the following μM concentrations: 25, 12.5, 6.25, 3.12, 1.56, 0.78, 0.39, 0.19, 0.10, 0.05, 0.02, 0.01). Five μL of compound dilution was then added to each well and the plate incubated at 37° C. for 90 min. The detection reagents were prepared according to the manufacture's instruction. Twelve μL of the detection reagents were added to each well and the plate incubated at room temperature for 60 min.
The plates were read on an EnVision instrument, using Protocol name: Luminescence, Plate type: 384 Costar, Measurement height: 3 mm, Measurement time: 1 s, Aperture: 384 Plate aperture. The % Activity relative to the positive control was calculated using the following equation:
The % Activity values were plotted versus the concentration of test compound and fitted to a sigmoidal dose-response curve with a Hill slope=1 (fixed value) using nonlinear regression with GraphPad Prism 5.0 to calculate the EC50 values. The Fitting Equation was: Y=Bottom+(Top-Bottom)/(1+10^((Log EC50−X)*HillSlope)), where X is the log of the concentration and Y is the response.

human GPR40 = target: T2, human GPR40 (Homo sapiens, UniProt O14842); assay: GPR40 calcium flux assay, human GPR40; settings: HEK293 cells stably expressing GPR40; table does not say human or rat
T2 construct: expressed in transfected cells
T2 sequence (O14842 whole entry): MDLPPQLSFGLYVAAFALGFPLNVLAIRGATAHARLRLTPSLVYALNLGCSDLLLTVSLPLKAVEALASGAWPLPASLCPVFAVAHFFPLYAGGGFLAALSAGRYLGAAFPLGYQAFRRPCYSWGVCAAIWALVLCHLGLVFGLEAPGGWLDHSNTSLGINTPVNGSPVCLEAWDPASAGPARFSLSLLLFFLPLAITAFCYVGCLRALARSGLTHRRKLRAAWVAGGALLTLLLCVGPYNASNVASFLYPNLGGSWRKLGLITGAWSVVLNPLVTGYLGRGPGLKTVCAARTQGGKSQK
Method in brief: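 Cells preincubated 1 h at 37° C. in HBSS, 20 mM HEPES, 0.1% BSA, then Fluo 8 calcium dye 30 min at 37° C. and 15 min at room temperature.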

Human GPR120 short form [2] = target: T3, Human GPR120 short form (Homo sapiens, UniProt Q5NUL3); assay: Human GPR120 calcium flux assay, Procedure Calcium B (4200 cells/well)
T3 construct: expressed in transfected cells
T3 sequence (Q5NUL3 1-361): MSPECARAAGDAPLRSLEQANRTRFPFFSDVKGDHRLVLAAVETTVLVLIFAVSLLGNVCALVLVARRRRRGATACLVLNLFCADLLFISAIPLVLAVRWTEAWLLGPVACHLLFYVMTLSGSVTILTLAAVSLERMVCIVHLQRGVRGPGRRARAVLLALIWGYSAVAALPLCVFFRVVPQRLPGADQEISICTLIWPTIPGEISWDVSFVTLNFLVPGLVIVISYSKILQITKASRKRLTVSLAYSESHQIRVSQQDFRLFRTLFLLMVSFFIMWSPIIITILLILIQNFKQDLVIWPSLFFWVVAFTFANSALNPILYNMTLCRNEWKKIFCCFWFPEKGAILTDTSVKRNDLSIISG
Method in brief: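 Agonist EC50 came from a four-parameter fit of RFU (Fmax−Fmin) read over 300 s on FLIPR. Cells were HEK293 stably transfected with human GPR120 (NM_001195755.1) at 4200 per well, serum-starved 1 h and loaded with Fluo-4 NW dye with probenecid before ligand addition.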

[3] = target: T4, long form of human GPR120 (Homo sapiens, UniProt Q5NUL3); assay: Human GPR120 DiscoveRx PathHunter Beta-Arrestin assay, Procedure β-arrestin A
T4 construct: host or cells: PathHunter CHO-K1 GPR120 β-Arrestin Cell Line
T4 sequence (Q5NUL3 1-377 isoform Q5NUL3-1): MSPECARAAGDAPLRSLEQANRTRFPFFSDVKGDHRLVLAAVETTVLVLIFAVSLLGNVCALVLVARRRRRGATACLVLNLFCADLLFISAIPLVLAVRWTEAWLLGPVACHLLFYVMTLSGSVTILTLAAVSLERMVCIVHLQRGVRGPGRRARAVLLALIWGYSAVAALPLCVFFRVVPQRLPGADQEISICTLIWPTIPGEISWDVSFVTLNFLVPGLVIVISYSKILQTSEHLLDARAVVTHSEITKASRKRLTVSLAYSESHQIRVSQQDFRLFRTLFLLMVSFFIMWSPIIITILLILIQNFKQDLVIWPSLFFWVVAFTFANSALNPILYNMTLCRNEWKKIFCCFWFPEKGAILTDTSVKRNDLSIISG
T4 sequence (P32121 whole entry partner): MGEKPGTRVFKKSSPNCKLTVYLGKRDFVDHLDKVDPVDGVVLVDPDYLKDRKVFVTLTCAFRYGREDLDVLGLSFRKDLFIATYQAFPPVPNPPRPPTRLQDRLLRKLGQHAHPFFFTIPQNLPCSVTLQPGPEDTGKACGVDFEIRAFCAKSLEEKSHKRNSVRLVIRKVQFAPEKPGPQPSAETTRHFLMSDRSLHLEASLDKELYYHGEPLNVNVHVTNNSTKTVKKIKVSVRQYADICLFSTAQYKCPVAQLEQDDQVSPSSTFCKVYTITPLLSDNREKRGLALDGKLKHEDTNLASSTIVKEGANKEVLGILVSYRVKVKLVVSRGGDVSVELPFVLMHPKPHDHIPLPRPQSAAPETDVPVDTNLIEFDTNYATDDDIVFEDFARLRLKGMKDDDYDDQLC
Method in brief: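 PathHunter CHO-K1 cells expressing long-form human GPR120 (3000/well) were seeded overnight. They were then preincubated 60 min in HBSS with 20 mM HEPES and 0.1% BSA, pH 7.4, and exposed to compound for 90 min at 37 °C. β-Arrestin recruitment was read as β-gal complementation luminescence. EC50 came from % activity versus positive control, Hill slope fixed at 1.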

Human GPR120 short form [4] = target: T3, Human GPR120 short form; assay: Human GPR120 calcium flux assay, Procedure Calcium A (2500 cells/well)
Method in brief: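 HEK293 cells stably expressing human GPR120 short isoform (NM_001195755.1), 2500 cells/well, serum-starved 1 h at 37 °C and loaded with Fluo-4 NW plus probenecid. FLIPR fluorescence read for 300 s after compound addition; response = Fmax−Fmin. EC50 from four-parameter concentration–response fit.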

T1 sequence (P32121 whole entry partner, one chain of several): as the sequence (P32121 whole entry partner) above

SMILES	EC50 [1] [nM]	EC50 (human GPR40) [nM]	EC50 (Human GPR120 short form [2]) [nM]	EC50 [3] [nM]	EC50 (Human GPR120 short form [4]) [nM]
Cc1c(CCC(=O)O)ccc(OCC2=C(c3ccc(Cl)cc3)CCC2C(F)(F)F)c1C (centres unmarked) [Compound 12, 3-[4-[[2-(4-chlorophenyl)-5-(trifluoromethyl)cyclopenten-1-yl]methoxy]-2,3-dimethyl-phenyl]Propanoic Acid]	93	> 5000	481		
O=C(O)CCc1ccc(OCC2=C(c3ccc(Cl)cc3)CCC2C(F)(F)F)c(F)c1F (centres unmarked) [Compound 32, 3-[4-[[2-(4-chlorophenyl)-5-(trifluoromethyl)cyclopenten-1-yl]methoxy]-2,3-difluoro-phenyl]Propanoic Acid]	203	> 5000	311	341	
O=C(O)CCc1cc(F)c(OCC2=C(c3ccc(Cl)cc3)CCC2C(F)(F)F)c(F)c1 (centres unmarked) [Compound 33, 3-[4-[[2-(4-chlorophenyl)-5-(trifluoromethyl)cyclopenten-1-yl]methoxy]-3,5-difluoro-phenyl]Propanoic Acid]	180	> 5000	288	312	
Cc1ccc(C2=C(COc3ccc(CCC(=O)O)c(F)c3F)CCC2)cn1 [Compound 87, 3-(2,3-difluoro-4-((2-(6-methylpyridin-3-yl)cyclopent-1-en-1-yl)methoxy)phenyl)Propanoic Acid]	493	> 5000			
Cc1c(CCC(=O)O)ccc(OCC2=C(c3ccc(F)c(F)c3)CCC2)c1C [Compound 117]	190	> 5000	110	256	
[2H]C(C(=O)O)C([2H])c1ccc(OCC2=C(c3ccc(Cl)cc3)CCC2)c(C)c1 (centres unmarked) [Compound 126-D, 3-(4-((2-(4-chlorophenyl)cyclopent-1-en-1-yl)methoxy)-3-methylphenyl)Propanoic-2,3-d2 Acid]	45	> 5000	10	35	
O=C(O)CCc1ccc(OCC2=C(c3ccc(Cl)cc3)CCC2)c(Br)c1 [Compound 129, 3-[3-bromo-4-[[2-(4-chlorophenyl)cyclopenten-1-yl]methoxy]phenyl]Propanoic Acid]	47	> 5000	21		
O=C(O)CCc1ccc(OCC2=C(c3ccc(Cl)cc3)CCC2)c(I)c1 [Compound 130, 3-[3-iodo-4-[[2-(4-chlorophenyl)cyclopenten-1-yl]methoxy]phenyl]Propanoic Acid]	41	> 5000	34	87	
Cc1ccc(C2=C(COc3c(F)cc(CCC(=O)O)cc3F)CCC2)cc1N [Compound 135, 3-(4-((2-(3-amino-4-methylphenyl)cyclopent-1-en-1-yl)methoxy)-3,5-difluorophenyl)Propanoic Acid]	1250	> 5000			
CC(Cc1ccc(OCC2=C(c3ccc(F)cc3)CCC2)c(F)c1)C(=O)O (centres unmarked) [Compound 458, 3-(3-fluoro-4-((2-(4-fluorophenyl)cyclopent-1-en-1-yl)methoxy)phenyl)-2-methylpropanoic Acid]	371		331		

Next, values leading:

EC50 [1] [nM]	EC50 (human GPR40) [nM]	EC50 (Human GPR120 short form [2]) [nM]	EC50 [3] [nM]	EC50 (Human GPR120 short form [4]) [nM]	SMILES
709		183		409	CSc1ccc(C2=C(COc3ccc(CCC(=O)O)c(C)c3C)CCC2)cc1 [Compound 50, 3-[2,3-dimethyl-4-[[2-(4-methylsulfanylphenyl)cyclopenten-1-yl]methoxy]phenyl]Propanoic Acid]
246		282		793	Cc1c(CCC(=O)O)ccc(OCC2=C(c3ccc(C(C)C)cc3)CCC2)c1C [Compound 55, 3-[4-[[2-(4-isopropylphenyl)cyclopenten-1-yl]methoxy]-2,3-dimethyl-phenyl]Propanoic Acid]
85		37		324	Cc1c(CCC(=O)O)ccc(OCC2=C(c3ccc(Br)cc3)CCC2)c1C [Compound 56, 3-[4-[[2-(4-bromophenyl)cyclopenten-1-yl]methoxy]-2,3-dimethyl-phenyl]Propanoic Acid]
258		50		527	Cc1c(CCC(=O)O)ccc(OCC2=C(c3ccc(I)cc3)CCC2)c1C [Compound 57, 3-[4-[[2-(4-iodophenyl)cyclopenten-1-yl]methoxy]-2,3-dimethyl-phenyl]Propanoic Acid]
171		195		591	Cc1c(CCC(=O)O)ccc(OCC2=C(c3ccc(C(F)(F)F)cc3)CCC2)c1C [Compound 75, 3-[2,3-dimethyl-4-[[2-[4-(trifluoromethyl)phenyl]cyclopenten-1-yl]methoxy]phenyl]Propanoic Acid]
625		385		1010	Cc1c(CCC(=O)O)ccc(OCC2=C(c3ccc(C(F)(F)F)cc3)CCCC2)c1C [Compound 460, 3-[2,3-dimethyl-4-[[2-[4-(trifluoromethyl)phenyl]cyclohexen-1-yl]methoxy]phenyl]Propanoic Acid]
478		66		462	Cc1ccc(C2=C(COc3ccc(CCC(=O)O)c(C)c3C)CCCC2)cc1 [Compound 462, 3-[2,3-dimethyl-4-[[2-(p-tolyl)cyclohexen-1-yl]methoxy]phenyl]Propanoic Acid]
385		79		234	Cc1c(CCC(=O)O)ccc(OCC2=C(c3ccc(F)cc3)CCCC2)c1C [Compound 480, 3-[4-[[2-(4-fluorophenyl)cyclohexen-1-yl]methoxy]-2,3-dimethyl-phenyl]Propanoic Acid]
475		134		250	Cc1c(CCC(=O)O)ccc(OCC2=C(c3ccc(Br)cc3)CCCC2)c1C [Compound 481, 3-[4-[[2-(4-bromophenyl)cyclohexen-1-yl]methoxy]-2,3-dimethyl-phenyl]Propanoic Acid]
